Results: patent US20260355094A1, “COMBINATION OF AN ORGANOSILICON COMPOUND WITH A CROSSLINKED GLYCOSAMINOGLUCAN FOR PREVENTING AND REPAIRING CUTANEOUS AGEING” (LABORATOIRES FILL-MED MANUFACTURING, priority 2022, published 2026)

Columns and labels:
elastin = conditions: in combination with resveratrol; human skin fibroblasts; cited from earlier work
collagen type I = conditions: in combination with resveratrol; human skin fibroblasts; cited from earlier work
[1] = tested on: hyaluronan synthase type 2 (HAS2); conditions: in combination with resveratrol; human skin fibroblasts; cited from earlier work
fibroblasts = assay: Contractile force of fibroblasts in equivalent dermis (Glassbox system); format: cell-based; conditions: 2.5 ng/ml, positive contraction control
Procedure: AFU+Si was tested to evaluate the effect on contractile force of fibroblasts in a Glassbox system, when compared to Si and AFU.
An equivalent dermis was developed in a culture box consisting of eight rectangular tanks. In each tank, two flexible blades were plunged, the lower parts of which were made up of grids on which the equivalent dermis clang during its polymerization. The equivalent dermis developed between the two blades to result in a rectangular shape slightly narrowed in the center.
Under the influence of the contraction forces developed by fibroblasts, the blades were deformed. Their deformation was measured in real time using optical fibers and adapted software. The deformation was proportional to the force developed within the equivalent dermis.
Prior to the test for contractile force, different concentrations of products diluted in cellular culture medium were tested for cellular viability. Among these, the following concentrations were chosen for the contractile force test: 0.005%, 0.05%, 0.0005% and 0.0025%.

| Compound | expression of elastin gene (elastin) | expression of collagen type I gene (collagen type I) | expression of hyaluronan synthase type 2 (HAS2) gene [1] | contractile forces (fibroblasts) |
| --- | --- | --- | --- | --- |
| C[SiH2]O.O=C[C@@H](O)[C@@H](O)[C@H](O)[C@H](O)C(=O)O [methylsilanol mannuronate] | promoting the expression | promoting the expression | promoting the expression |  |
| TGFβ1: used as a positive contraction control |  |  |  | significant increase in contractile forces |
